Source: patent US20040171544A1, “Trefoil domain-containing polypeptides and uses thereof” (priority 2001, published 2004)
Where no end group is shown, it is not given here.

Key:
[1] = system: IEC-6 cells; assay: in vitro IEC-6 wounding/cell migration assay; type: cell-based; conditions: for relative activity (wound repair, IEC-6 cells across the wound border): 0.1-1.0 mg/ml dimer, 19 hours, serum-deprived media with or without hCGP 2 mg/ml
Description: Biological activity of recombinant trefoil peptide fragments was measured using an in vitro wound/migration assay as described by Dignass et al. (J. Clin. Invest. 94:376-383 (1994)). Briefly, primary intestinal epithelial, IEC-6 cells (at passage 17) were grown in sterile Dulbecco's Modified Eagle Medium (DMEM) supplemented with 5% FCS (v/v), 5 μg/μl insulin, and 10 mM penicillin/streptomycin/L-glutamine (PSG). Cells were grown to confluence in a humidified chamber at 37° C. and 5% CO2.
Prior to performing biopotency assays, the media was removed, washed 2× with 0.1% FCS/DMEM and serum-starved overnight in 0.1% FCS/DMEM at 37° C. and 5% CO2. Two simulated wounds per well were made by scoring the cells with a razor blade. The cells were then washed once with 0.1%FCS/DMEM. Samples of hITF15-73 and its fragments and isoforms were produced in Pichia pastoris and purified as described above. The TDCP mixture was then added to separate plates at a concentration of 100 μg per milliliter of 0.1% FCS/DMEM per fragment. A positive control using the known mitogen, transforming growth factor-β (TGF-β), was included at 20 ng/mL media and a negative control of just 0.1% FCS/DMEM were incorporated for later analysis. Cells were incubated for 24 hours at 37° C. At 24 hours post incubation, cells were washed with ice-cold PBS and fixed in cold MeOH. Each plate was then assayed for motility by counting the number of cells crossing the wound edge.
Biological activity was tested using the in vitro IEC-6 wounding/cell migration assay describe above with the following modifications. IEC-6 cells were cultured to confluence in 24-well multiwell plates and were wounded once with a pipette to yield a 4-5 mm×1 cm wound in each well. Cells were washed and maintained in serum-deprived media, with or without human colonic glycoprotein (hCGP; 2 mg/ml), in the presence of 0.1-1.0 mg/ml of one of the three recombinant hITF dimers identified above for 19 hours. Bovine serum albumin (0.1-1.0 mg/ml) was added instead of an hITF dimer. Wound repair was determined by counting the number of IEC-6 cells across the wound border using a 100× photomicrograph (inverted Nikon Diaphor TMS, Nikon N6006 camera).

[2] = isoelectric point (pI) of ITF fragments; type: physicochemical
From the text: We have observed that production of trefoil peptides in Pichia pastoris leads to post-translational events which include proteolytic cleavage and dipeptide addition. […] Our studies have shown that longer fermentation times results in increased hITF21-72 yields. We also observed that the optimal yield of the ITF21-72 and ITF21-73 occurs at a pH of ˜5; whereas the optimal yield of the […] and […] occurs at pH 6.0-6.5. As the pI of ITF15-73 and ITF21-72 is 5.1 and 6.9 respectively, separation of the two products can be achieved by ion-exchange chromatography.

[3] = stated as well known; cited from earlier work

Molecule: EA-hITF15-73 homodimer: dimer of EA-hITF15-73, 13547 Da (EAEEYVGLSANQCAVPAKDRVDCGYPHVTPKECNNRGCCFDSRIPGVPWCFKPLQEAECTF; also: homodimer; UniProt Q07654 22-80, looked up, fragment)
- relative activity (wound repair, IEC-6 cells across the wound border) [1]: 85.3%

Molecule: hITF15-73 homodimer: recombinant hITF15-73 dimer, 13146 Da (EEYVGLSANQCAVPAKDRVDCGYPHVTPKECNNRGCCFDSRIPGVPWCFKPLQEAECTF; cysteine pairing not given here; also: homodimer; UniProt Q07654 22-80, looked up, fragment)
- relative activity (wound repair, IEC-6 cells across the wound border) [1]: 100%

Molecule: hITF15-73/EA-hITF15-73 heterodimer: dimer of hITF15-73 and EA-hITF15-73, 13347 Da (EEYVGLSANQCAVPAKDRVDCGYPHVTPKECNNRGCCFDSRIPGVPWCFKPLQEAECTF; cysteine pairing not given here; also: heterodimer of hITF15-73 and EA-hITF15-73, one chain has N-terminal Glu-Ala extension; UniProt Q07654 22-80, looked up, fragment)
- relative activity (wound repair, IEC-6 cells across the wound border) [1]: 95.6%

Molecule: hITF15-73: recombinant trefoil peptide fragment, amino acid residues 15-73 of human intestinal trefoil factor, produced in Pichia pastoris (EEYVGLSANQCAVPAKDRVDCGYPHVTPKECNNRGCCFDSRIPGVPWCFKPLQEAECTF; UniProt Q07654 22-80, looked up, fragment)
- pI [2]: 5.1
- increase in IEC-6 cells migrating over the wound edge, compared to BSA control ([1]; 1 mg/ml, 19 hour incubation, versus 1 mg/ml BSA (FIG. 12)): ~3 fold

B1: hITF: human intestinal trefoil factor (hITF; also known as TFF3) (protein, listed as Homo sapiens)
chain: MLGLVLALLSSSSAEEYVGLSANQCAVPAKDRVDCGYPHVTPKECNNRGCCFDSRIPGVPWCFKPLQEAECTF
- stability at stomach pH [3]: stable
